In PubChem BioAssay (NCI):
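Compound exposure: 48 hours, 5 concentrations, 96-well plates. Here, GI50 denotes the concentration required for 50% inhibition of growth. TGI is the concentration that stops growth completely.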

Columns and labels:
Experiment in all cases: NCI tumour cell line growth inhibition, 48 h; in the data active = GI50 below about 0.43 µM; inactive = the rest
NCI-H460 lung = test system: NCI-H460 lung
HCT-116 colon = test system: HCT-116 colon
IGROV1 ovarian = test system: IGROV1 ovarian
M14 melanoma = test system: M14 melanoma
MCF7 breast = test system: MCF7 breast
MDA-MB-435 = test system: MDA-MB-435
SNB-19 CNS = test system: SNB-19 CNS
SN12C renal = test system: SN12C renal
T-47D breast = test system: T-47D breast
OVCAR-8 ovarian = test system: OVCAR-8 ovarian
NCI-H23 lung = test system: NCI-H23 lung
HS 578T breast = test system: HS 578T breast
MOLT-4 leukemia = test system: MOLT-4 leukemia
SF-268 CNS = test system: SF-268 CNS
LOX IMVI melanoma = test system: LOX IMVI melanoma
CCRF-CEM leukemia = test system: CCRF-CEM leukemia
HCC-2998 colon = test system: HCC-2998 colon
MDA-MB-231 breast = test system: MDA-MB-231 breast
EKVX NSCLC = test system: EKVX NSCLC
NCI-H226 lung = test system: NCI-H226 lung
UO-31 renal = test system: UO-31 renal
SR leukemia = test system: SR leukemia
SW-620 colon = test system: SW-620 colon
TK-10 renal = test system: TK-10 renal
UACC-62 melanoma = test system: UACC-62 melanoma
UACC-257 melanoma = test system: UACC-257 melanoma
OVCAR-4 ovarian = test system: OVCAR-4 ovarian
DU-145 prostate = test system: DU-145 prostate
BT-549 breast = test system: BT-549 breast
PC-3 prostate = test system: PC-3 prostate
SK-MEL-28 melanoma = test system: SK-MEL-28 melanoma
HL-60(TB) leukemia = test system: HL-60(TB) leukemia
SK-MEL-2 melanoma = test system: SK-MEL-2 melanoma
COLO 205 colon = test system: COLO 205 colon
SK-OV-3 ovarian = test system: SK-OV-3 ovarian
RXF 393 renal = test system: RXF 393 renal
CAKI-1 renal = test system: CAKI-1 renal
HT29 colon = test system: HT29 colon
HOP-92 NSCLC = test system: HOP-92 NSCLC
KM12 colon = test system: KM12 colon
HOP-62 NSCLC = test system: HOP-62 NSCLC
786-0 renal = test system: 786-0 renal
A549 NSCLC = test system: A549 NSCLC
A498 renal = test system: A498 renal
OVCAR-5 ovarian = test system: OVCAR-5 ovarian
SF-539 CNS = test system: SF-539 CNS
SK-MEL-5 melanoma = test system: SK-MEL-5 melanoma
MALME-3M melanoma = test system: MALME-3M melanoma
OVCAR-3 ovarian = test system: OVCAR-3 ovarian
SF-295 CNS = test system: SF-295 CNS
K-562 leukemia = test system: K-562 leukemia
U251 CNS = test system: U251 CNS
HCT-15 colon = test system: HCT-15 colon
RPMI-8226 leukemia = test system: RPMI-8226 leukemia
ACHN renal = test system: ACHN renal
NCI-H522 lung = test system: NCI-H522 lung
SNB-75 CNS = test system: SNB-75 CNS
NCI/ADR-RES ovarian = test system: NCI/ADR-RES ovarian

Cc1cc(Cl)ccc1NC(=O)c1cc2ccccc2cc1O
> 27500 nM: TGI (U251 CNS)
> 28600 nM: TGI (SF-295 CNS)
1180 nM: TGI (RPMI-8226 leukemia)
> 36200 nM: TGI (MOLT-4 leukemia)
545 nM: TGI (HOP-92 NSCLC)
3840 nM: TGI (UACC-257 melanoma)
inactive: GI50 (NCI-H460 lung) 511 nM | GI50 (IGROV1 ovarian) 993 nM | GI50 (M14 melanoma) 657 nM | GI50 (MCF7 breast) 1570 nM | GI50 (MDA-MB-435) 555 nM | GI50 (SNB-19 CNS) 736 nM | GI50 (T-47D breast) 852 nM | GI50 (OVCAR-8 ovarian) 882 nM | GI50 (HS 578T breast) 1310 nM | GI50 (MOLT-4 leukemia) 651 nM | GI50 (SF-268 CNS) 1910 nM | GI50 (LOX IMVI melanoma) 539 nM | GI50 (CCRF-CEM leukemia) 1220 nM | GI50 (HCC-2998 colon) 3920 nM | GI50 (MDA-MB-231 breast) 1010 nM | GI50 (EKVX NSCLC) 2610 nM | GI50 (NCI-H226 lung) 930 nM | GI50 (SR leukemia) 443 nM | GI50 (SW-620 colon) 1590 nM | GI50 (TK-10 renal) 1560 nM | GI50 (UACC-257 melanoma) 611 nM | GI50 (OVCAR-4 ovarian) 1940 nM | GI50 (DU-145 prostate) 1150 nM | GI50 (BT-549 breast) 673 nM | GI50 (PC-3 prostate) 875 nM | GI50 (SK-MEL-28 melanoma) 767 nM | GI50 (HL-60(TB) leukemia) 435 nM | GI50 (SK-MEL-2 melanoma) 432 nM | GI50 (COLO 205 colon) 6460 nM | GI50 (SK-OV-3 ovarian) 2110 nM | GI50 (RXF 393 renal) 1180 nM | GI50 (HT29 colon) 12300 nM | GI50 (KM12 colon) 1910 nM | GI50 (HOP-62 NSCLC) 2680 nM | GI50 (786-0 renal) 1190 nM | GI50 (A549 NSCLC) 931 nM | GI50 (OVCAR-5 ovarian) 4200 nM | GI50 (SF-539 CNS) 783 nM | GI50 (SF-295 CNS) 2560 nM | GI50 (U251 CNS) 503 nM | GI50 (HCT-15 colon) 641 nM | GI50 (ACHN renal) 583 nM | GI50 (SNB-75 CNS) 7140 nM | GI50 (NCI/ADR-RES ovarian) 433 nM
8600 nM: TGI (RXF 393 renal)
8770 nM: TGI (SR leukemia)
active: GI50 (HCT-116 colon) 405 nM | GI50 (SN12C renal) 377 nM | GI50 (NCI-H23 lung) 295 nM | GI50 (UO-31 renal) 405 nM | GI50 (UACC-62 melanoma) 354 nM | GI50 (CAKI-1 renal) 381 nM | GI50 (HOP-92 NSCLC) 146 nM | GI50 (A498 renal) 220 nM | GI50 (SK-MEL-5 melanoma) 373 nM | GI50 (MALME-3M melanoma) 342 nM | GI50 (OVCAR-3 ovarian) 369 nM | GI50 (K-562 leukemia) 419 nM | GI50 (RPMI-8226 leukemia) 294 nM | GI50 (NCI-H522 lung) 304 nM
> 34900 nM: TGI (OVCAR-3 ovarian)
> 100000 nM: TGI (NCI-H460 lung) | TGI (HCT-116 colon) | TGI (IGROV1 ovarian) | TGI (M14 melanoma) | TGI (MCF7 breast) | TGI (MDA-MB-435) | TGI (SNB-19 CNS) | TGI (SN12C renal) | TGI (OVCAR-8 ovarian) | TGI (NCI-H23 lung) | TGI (HS 578T breast) | TGI (SF-268 CNS) | TGI (LOX IMVI melanoma) | TGI (CCRF-CEM leukemia) | TGI (HCC-2998 colon) | TGI (EKVX NSCLC) | TGI (NCI-H226 lung) | TGI (UO-31 renal) | TGI (SW-620 colon) | TGI (TK-10 renal) | TGI (UACC-62 melanoma) | TGI (OVCAR-4 ovarian) | TGI (DU-145 prostate) | TGI (BT-549 breast) | TGI (SK-MEL-28 melanoma) | TGI (SK-OV-3 ovarian) | TGI (CAKI-1 renal) | TGI (HT29 colon) | TGI (HOP-62 NSCLC) | TGI (786-0 renal) | TGI (A549 NSCLC) | TGI (OVCAR-5 ovarian) | TGI (SF-539 CNS) | TGI (MALME-3M melanoma) | TGI (K-562 leukemia) | TGI (HCT-15 colon) | TGI (ACHN renal) | TGI (SNB-75 CNS)
> 26800 nM: TGI (T-47D breast)
> 29400 nM: TGI (NCI-H522 lung)
28400 nM: TGI (PC-3 prostate)
25500 nM: TGI (MDA-MB-231 breast)
> 44000 nM: TGI (KM12 colon)
30500 nM: TGI (COLO 205 colon)
3470 nM: TGI (HL-60(TB) leukemia)
2430 nM: TGI (SK-MEL-5 melanoma)
1400 nM: TGI (A498 renal)
